# Patent publication EP4775571A1, “LPAR1 ANTAGONIST AND USE THEREOF” (Haisco Pharmaceutical Group Co., Ltd., priority 2023, dated 2025)
# Where two headings read alike, the source gives them in different places.
# How the values were obtained:
# LPAR1 = biological target: T1, LPAR1 (Homo sapiens, UniProt Q92633); assay: Cell calcium flux assay (antagonist mode, LPA at EC80, FLIPR); format: cell-based
# T1 construct: expressed in transfected cells; host or cells: CHO (CHO-LPA1 cells)
# Protocol: • 1) The test compound was diluted to a 400X stock solution with DMSO in a 384-well plate. • 2) 1 µl of compound solution from step 1 was transferred into 39 ul of assay buffer to prepare a 10X working solution in a 384-well plate using a Bravo automated liquid handling platform. • 3) CHO-LPA1 cells were cultured in F12 medium (10% FBS). • 4) When cells reached 80% confluence, the cells were dissociated using 0.25% trypsin-EDTA. • 5) Cell density was determined and the cells were diluted to 4x10e5/ml using F12 (10% FBS). • 6) 30 µl of the cell suspension was dispensed into a 384-well plate (corning 3764#) using a multidrop automated dispenser, resulting in 12,000 cells per well. The plate was incubated at 37°C with 5% CO2 for 18-20 hours. • 7) The medium was replaced with 25 uL of serum-free medium and incubated overnight. • 8) 10 ul of 3.5X loading dye was added to each well of the cell plate. The plate was incubated in the dark at 37°C with 5% CO2 for 0.5-1 hours. • 9) After incubation, 5 µl of the 10X working solution from step 2 was transferred to the cell plate. • 10) The cell plate was incubated in the dark at 25°C for 15 minutes, and then the calcium signals were read. • 11) A 5X agonist (LPA) working solution in 1X HBSS+20 mM HEPES+0.1% BSA was prepared in a 384-well assay plate (greiner 784075#), with at least 20 µl per well. The agonist concentration used in this assay was determined based on the dose-response curve from a prior agonist mode experiment, with the EC80 value serving as the final agonist concentration. • 12) Data were read and saved using FLIPR at room temperature with the specified settings. • 13) The signal values were plotted against compound concentrations, and the curve fitting was performed and the IC50 values were calculated using nonlinear regression analysis in GraphPad Prism software.
# IC50 values are represented by grades A, B, C, and D, where A represents 0 < IC50 ≤ 10 nM, B represents 10 nM < IC50 ≤ 50 nM, C represents 50 nM < IC50 ≤ 100 nM, and D represents IC50 > 100 nM. Table 1 Antagonistic activity of the compounds of the present invention against LPAR1
# [1] = Pharmacokinetic test in mice; format: in vivo, C57 mice; conditions: for pharmacokinetic characteristics in mice: conclusion in words; for C0 or Cmax / AUC(0-t) / clearance / Vd / bioavailability: mice, plasma; for AUC(0-t) / clearance / Vd / bioavailability: mouse; for Vd: read-out: Vdss
# Protocol: 2.1 Experimental animals: Male C57 mice, 20-25 g, 6 mice/compound, purchased from Chengdu Ddossy Experimental Animals Co., Ltd.
# 2.2 Experimental design: On the day of the experiment, the C57 mice were randomly grouped according to their body weights. The animals were fasted with water available for 12-14 h one day before the administration, and were fed 4 h after the administration. Table 2. Administration information
# Before and after administration, 0.06 mL of blood was taken from the orbit under isoflurane anaesthesia and placed in an EDTAK2 centrifuge tube. The tube was centrifuged at 5000 rpm at 4°C for 10 min, and plasma was collected. The blood collection time points for the intravenous administration group and oral gavage administration group were: 0 min, 5 min, 15 min, 30 min, 1 h, 2 h, 4 h, 6 h, 8 h, and 24 h. Before analysis and detection, all samples were stored at -80°C, and the samples were quantitatively analysed by LC-MS/MS. Table 3. Pharmacokinetic parameters of test compounds in plasma of mice
# [2] = Pharmacokinetic test in rats; format: in vivo, SD rats; conditions: for Vd: read-out: Vdss
# Protocol: 3.1. Experimental animals: Male SD rats, about 220 g, 6-8 weeks old, 6 rats/compound, purchased from Chengdu Ddossy Experimental Animals Co., Ltd.
# 3.2. Experimental design: On the day of the experiment, the SD rats were randomly grouped according to their body weights. The animals were fasted with water available for 12-14 h one day before the administration, and were fed 4 h after the administration. Table 4. Administration information
# Before and after administration, 0.15 mL of blood was taken from the orbit under isoflurane anaesthesia and placed in an EDTAK2 centrifuge tube. The tube was centrifuged at 5000 rpm at 4°C for 10 min, and plasma was collected. Before analysis and detection, all samples were stored at -80°C, and the samples were quantitatively analysed by LC-MS/MS. Table 5. Pharmacokinetic parameters of test compound in plasma of rats
# [3] = CHO-LPA1 cells, calcium flux, grades, read-out: LPAR1 IC50
# [4] = antagonistic activity against the LPAR1 receptor, read-out: IC50 values
# [5] = rat, iv, rats, i.v. (1 mg/kg), plasma
# [6] = rat, po, rats, i.g. (3 mg/kg), plasma
# T1 sequence (Q92633 whole entry): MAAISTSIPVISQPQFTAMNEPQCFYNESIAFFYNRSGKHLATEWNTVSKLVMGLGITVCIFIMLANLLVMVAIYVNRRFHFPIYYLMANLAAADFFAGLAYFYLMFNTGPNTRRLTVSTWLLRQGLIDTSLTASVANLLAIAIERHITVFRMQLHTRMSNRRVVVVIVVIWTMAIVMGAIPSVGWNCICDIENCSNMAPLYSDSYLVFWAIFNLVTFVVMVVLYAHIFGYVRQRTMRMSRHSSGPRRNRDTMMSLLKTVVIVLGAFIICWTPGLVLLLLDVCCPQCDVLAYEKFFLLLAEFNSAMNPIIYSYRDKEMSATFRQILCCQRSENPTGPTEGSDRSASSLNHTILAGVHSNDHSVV
smiles,measurement,setting,value
"C=C1CC(N(C)C(=O)OCc2c(-c3ccc(OCC4C(C(=O)O)C4(F)F)c(C)n3)nnn2C)C1 (single isomer, unassigned) [Compound 32-1]",IC50,LPAR1; [3],< 10 nM
"C=C1CC(N(C)C(=O)OCc2c(-c3ccc(OCC4C(C(=O)O)C4(F)F)c(C)n3)nnn2C)C1 (single isomer, unassigned) [Compound 32-4]",IC50,LPAR1; [3],< 10 nM
"C=C1CC(N(C)C(=O)OCc2c(-c3ccc(NC(=O)C4C(C(=O)O)C4(F)F)c(C)n3)nnn2C)C1 (single isomer, unassigned) [Compound 34-2]",IC50,LPAR1; [3],< 10 nM
"C=C1CC(CN(C)C(=O)OCc2c(-c3ccc(NC(=O)C4C(C(=O)O)C4(F)F)c(C)n3)nnn2C)C1 (single isomer, unassigned) [Compound 35-2]",IC50,LPAR1; [3],< 10 nM
"Cc1nc(-c2nnn(C)c2CNC(=O)OC2CC(=C(F)F)C2)ccc1OC1CCCCC(C(=O)O)C1 (single isomer, unassigned) [Compound 48-2]",IC50,LPAR1; [3],10 to 50 nM
C=C1CC(N(C)C(=O)OCc2c(-c3ccc(O[C@H]4CCC[C@H](C(=O)O)C4)c(C)n3)nnn2C)C1 [Compound 4],IC50,LPAR1; [3],< 10 nM
same,IC50,LPAR1; [4],2 nM
same,pharmacokinetic characteristics in mice,[1],excellent pharmacokinetic characteristics
same,C0 or Cmax,[1]; i.g. (3 mg/kg),687 ± 331 ng/mL
same,C0 or Cmax,[1]; i.v. (1 mg/kg),1066 ± 134 ng/mL
same,AUC(0-t),"[1]; iv, i.v. (1 mg/kg)",510 ± 95 ng·h/mL
same,clearance,"[1]; iv, i.v. (1 mg/kg)",33.2 ± 5.6 mL/min/kg
same,Vd,"[1]; iv, i.v. (1 mg/kg)",5.11 ± 1 L/kg
same,bioavailability,"[1]; po, i.g. (3 mg/kg)",≥ 98%
same,AUC(0-t),"[1]; po, i.g. (3 mg/kg)",2180 ± 672 ng·h/mL
C=C1CC(CN(C)C(=O)OCc2c(-c3ccc(O[C@H]4CCC[C@H](C(=O)O)C4)c(C)n3)nnn2C)C1 [Compound 5],IC50,LPAR1; [3],< 10 nM
same,IC50,LPAR1; [4],2 nM
CC=C1CC(N(C)C(=O)OCc2c(-c3ccc(O[C@H]4CCC[C@H](C(=O)O)C4)c(C)n3)nnn2C)C1 (stereo partly drawn) [Compound 7],IC50,LPAR1; [3],< 10 nM
same,IC50,LPAR1; [4],2 nM
C=C1CC(COC(=O)NCc2c(-c3ccc(O[C@H]4CCC[C@H](C(=O)O)C4)c(C)n3)nnn2C)C1 [Compound 11],IC50,LPAR1; [3],< 10 nM
Cc1nc(-c2nnn(C)c2COC(=O)N(C)C2CC(=C(F)F)C2)ccc1O[C@H]1CCC[C@H](C(=O)O)C1 (stereo partly drawn) [Compound 12],IC50,LPAR1; [3],< 10 nM
same,IC50,LPAR1; [4],2 nM
same,pharmacokinetic characteristics in mice,[1],excellent pharmacokinetic characteristics
same,C0 or Cmax,[1]; i.g. (3 mg/kg),581 ± 18 ng/mL
same,C0 or Cmax,[1]; i.v. (1 mg/kg),1938 ± 258 ng/mL
same,AUC(0-t),"[1]; iv, i.v. (1 mg/kg)",962 ± 131 ng·h/mL
same,clearance,"[1]; iv, i.v. (1 mg/kg)",17.5 ± 2.4 mL/min/kg
same,Vd,"[1]; iv, i.v. (1 mg/kg)",2.57 ± 0.23 L/kg
same,AUC(0-t),"[1]; po, i.g. (3 mg/kg)",1450 ± 81 ng·h/mL
Cc1nc(-c2nnn(C)c2COC(=O)N(C)CC2CC(=C(F)F)C2)ccc1O[C@H]1CCC[C@H](C(=O)O)C1 (stereo partly drawn) [Compound 13],IC50,LPAR1; [3],10 to 50 nM
Cc1nc(-c2nnn(C)c2COC(=O)N(C)CCOC(F)(F)F)ccc1O[C@H]1CCC[C@H](C(=O)O)C1 [Compound 14],IC50,LPAR1; [3],< 10 nM
Cc1nc(-c2nnn(C)c2COC(=O)N(C)OC2CCC2)ccc1O[C@H]1CCC[C@H](C(=O)O)C1 [Compound 15],IC50,LPAR1; [3],10 to 50 nM
CC(C)=C1CC(N(C)C(=O)OCc2c(-c3ccc(O[C@H]4CCC[C@H](C(=O)O)C4)c(C)n3)nnn2C)C1 (stereo partly drawn) [Compound 18],IC50,LPAR1; [3],< 10 nM
C=C1CCC(CN(C)C(=O)OCc2c(-c3ccc(O[C@H]4CCC[C@H](C(=O)O)C4)c(C)n3)nnn2C)CC1 [Compound 19],IC50,LPAR1; [3],< 10 nM
same,IC50,LPAR1; [4],2 nM
C=C1CC(N(C)C(=O)OCc2c(-c3ccc(N[C@H]4CCC[C@H](C(=O)O)C4)c(C)n3)nnn2C)C1 [Compound 21],IC50,LPAR1; [3],< 10 nM
Cc1nc(-c2nnn(C)c2CNC(=O)OCC2CC(=C(F)F)C2)ccc1O[C@H]1CCC[C@H](C(=O)O)C1 (stereo partly drawn) [Compound 23],IC50,LPAR1; [3],< 10 nM
C=C1C[C@H](Oc2ccc(-c3nnn(C)c3COC(=O)N(C)CCC)nc2C)C[C@@H](C(=O)O)C1 [Compound 24],IC50,LPAR1; [3],< 10 nM
C=C1CC(N(C)C(=O)OCc2c(-c3ccc(OCC4C(C(=O)O)C4(F)F)c(C)n3)nnn2C)C1 (stereo not drawn) [Compound 25],IC50,LPAR1; [3],< 10 nM
Cc1nc(-c2nnn(C)c2COC(=O)N(C)CCOC(F)F)ccc1O[C@H]1CCC[C@H](C(=O)O)C1 [Compound 27],IC50,LPAR1; [3],< 10 nM
Cc1nc(-c2nnn(C)c2COC(=O)N(C)CCSC(F)(F)F)ccc1O[C@H]1CCC[C@H](C(=O)O)C1 [Compound 28],IC50,LPAR1; [3],< 10 nM
C=C1CC(N(C)C(=O)OCc2c(-c3ccc(OCC(C)(C)CC(=O)O)c(C)n3)nnn2C)C1 [Compound 29],IC50,LPAR1; [3],< 10 nM
same,pharmacokinetic characteristics in rats,[2]; conclusion in words,good pharmacokinetic characteristics
same,AUC(0-t),[2]; [5],1090 ± 208 ng·h/mL
same,clearance,[2]; [5],15 ± 2.7 mL/min/kg
same,Vd,[2]; [5],3.53 ± 1.6 L/kg
same,AUC(0-t),[2]; [6],2540 ± 679 ng·h/mL
same,C0 or Cmax,"[2]; rats, i.g. (3 mg/kg), plasma",739 ± 29 ng/mL
same,C0 or Cmax,"[2]; rats, i.v. (1 mg/kg), plasma",2324 ± 170 ng/mL
Cc1nc(-c2nnn(C)c2COC(=O)N(C)[C@H]2C[C@@H](OC(F)(F)F)C2)ccc1O[C@H]1CCC[C@H](C(=O)O)C1 [Compound 30],IC50,LPAR1; [3],< 10 nM
Cc1nc(-c2nnn(C)c2COC(=O)N(C)[C@H]2C[C@H](OC(F)(F)F)C2)ccc1O[C@H]1CCC[C@H](C(=O)O)C1 [Compound 31],IC50,LPAR1; [3],< 10 nM
C=C1CC(N(C)C(=O)OCc2c(-c3ccc(OCC4(CC(=O)O)CC4)c(C)n3)nnn2C)C1 [Compound 36],IC50,LPAR1; [3],< 10 nM
CCCN(C)C(=O)OCc1c(-c2ccc(O[C@H]3CC(=C(F)F)C[C@H](C(=O)O)C3)c(C)n2)nnn1C [Compound 38],IC50,LPAR1; [3],< 10 nM
Cc1nc(-c2nnn(C)c2COC(=O)N(C)[C@H]2C[C@@H](OC(F)F)C2)ccc1O[C@H]1CCC[C@H](C(=O)O)C1 [Compound 39],IC50,LPAR1; [3],< 10 nM
Cc1nc(-c2nnn(C)c2COC(=O)N(C)[C@H]2C[C@H](OC(F)F)C2)ccc1O[C@H]1CCC[C@H](C(=O)O)C1 [Compound 40],IC50,LPAR1; [3],< 10 nM
Cc1nc(-c2nnn(C)c2CNC(=O)O[C@H]2C[C@@H](OC(F)(F)F)C2)ccc1O[C@H]1CCC[C@H](C(=O)O)C1 [Compound 41],IC50,LPAR1; [3],< 10 nM
Cc1nc(-c2nnn(C)c2CNC(=O)O[C@H]2C[C@H](OC(F)(F)F)C2)ccc1O[C@H]1CCC[C@H](C(=O)O)C1 [Compound 42],IC50,LPAR1; [3],< 10 nM
Cc1nc(-c2nnn(C)c2CNC(=O)OC2CC(=C(F)F)C2)ccc1OCCC1(C(=O)O)CC1 (stereo not drawn) [Compound 47],pharmacokinetic characteristics in mice,[1],excellent pharmacokinetic characteristics
same,C0 or Cmax,[1]; i.g. (3 mg/kg),566 ± 122 ng/mL
same,C0 or Cmax,[1]; i.v. (1 mg/kg),1361 ± 179 ng/mL
same,AUC(0-t),"[1]; iv, i.v. (1 mg/kg)",1000 ± 333 ng·h/mL
same,clearance,"[1]; iv, i.v. (1 mg/kg)",16.8 ± 5.7 mL/min/kg
same,Vd,"[1]; iv, i.v. (1 mg/kg)",5.4 ± 1.4 L/kg
same,bioavailability,"[1]; po, i.g. (3 mg/kg)",91.3%
same,AUC(0-t),"[1]; po, i.g. (3 mg/kg)",2740 ± 325 ng·h/mL
same,AUC(0-t),[2]; [5],2850 ± 532 ng·h/mL
same,clearance,[2]; [5],5.95 ± 1.2 mL/min/kg
same,Vd,[2]; [5],0.825 ± 0.027 L/kg
same,bioavailability,"[2]; rat, plasma, po, rats, i.g. (3 mg/kg)",≥ 98%
same,AUC(0-t),[2]; [6],12600 ± 1320 ng·h/mL
same,C0 or Cmax,"[2]; rats, i.g. (3 mg/kg), plasma",3060 ± 457 ng/mL
same,C0 or Cmax,"[2]; rats, i.v. (1 mg/kg), plasma",3233 ± 495 ng/mL
